Structures are written as SMILES. Like-named read-outs stand apart in the source and are kept apart here.

Series [1] relates to NS5A chimeric genotype 2a JFH-1 replicon with genotype 2b MD2b-1 strain NS5A gene (M31 present). Kind of series: Replicon assay, genotype 2b NS5A chimera. Format: cell-based, HCV. The settings on record: Hepatitis C virus. The essentials: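 Cells carrying the stable or transiently transfected (Huh-Lunet) dicistronic RLuc replicons received 3-fold serial compound dilutions from 10 mM DMSO stocks. After 72 h, cells were lysed and Renilla luciferase read. DMSO served as the no-inhibition control and ITMN-191 above 100×EC50 as the positive control; EC50 by non-linear regression.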
(In antiviral work, replicon cells carry a viral genome segment that copies itself.)

Series [2] deals with stable HCV 1a RLuc replicon cells (dicistronic genotype 1a H77 replicon). Kind of series: Renilla luciferase HCV replicon reporter assay, genotype 1a. The settings on record: Hepatitis C virus, 72 h, stable 1a H77 RLuc replicon cells. The series is classed as cell-based. The essentials: (§1)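 Antiviral EC50 was determined in HCV replicon cells (stable RLuc lines for 1a H77, 1b Con1, 2a JFH-1 with NS5A L31; J6 NS5A chimera with M31) treated 72 h with compound. Renilla luciferase was then quantified.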

Series [3] relates to NS5A chimeric genotype 1b Con1 replicon with genotype 3a S52 strain NS5A gene. Kind of series: Replicon assay, genotype 3a NS5A chimera. Format: cell-based, HCV. The settings on record: Hepatitis C virus.
Series [4] is described as follows: IV and PO single dose pharmacokinetic studies in SD rats. The series is classed as in vivo, male Sprague-Dawley (SD) rats. To be noted: Sprague-Dawley, rat, plasma, male SD rats, PO 2 mg/kg vs IV infusion 1 mg/kg, read-out: Rat % F. As to the method: IV and PO Single Dose Pharmacokinetic Studies in SD Rats:
The pharmacokinetics of selected compounds was characterized in male Sprague-Dawley (SD) rats (250-300g). In this study, two groups of naïve purebred SD rats (N=3 per group, fasted over night) received the selected compound either as an intravenous (IV) infusion (1 mg/kg over 30 minutes) via the jugular vein or by oral gavage (2 mg/kg). The intravenous (IV) dosing vehicle was 5% ethanol, 35% polyethylene glycol 400 (PEG 400) and 60% water pH 2.0. The oral dosing vehicle was 5% ethanol, 55% PEG 400 and 40% citrate buffer pH 2.2.
Serial blood samples (approximately 0.3 mL each) were collected from jugular vein or other suitable vein at specified time points. For the IV infusion group, the blood samples were collected predose and at 0.25, 0.48, 0.58, 0.75, 1.5, 3, 6, 8, 12 and 24 hours after the start of infusion. For the oral group, the blood samples were collected predose and at 0.25, 0.50, 1, 2, 4, 6, 8, 12 and 24 hours after dosing. The blood samples were collected into VacutainerγM tubes containing EDTA-K3 as the anti-coagulant and were centrifuged at approximately 4° C. to obtain plasma. The plasma samples were stored at −20° C. until analysis by LC/MS/MS.
A bioanalytical method utilizing high performance liquid chromatography coupled to tandem mass spectrometry (LC/MS/MS) was developed for analysis of the selected compound in rat plasma. Detection was performed using selected reaction monitoring (SRM); Ions representing the precursor (M+H)^+ species was selected in quadrupole 1 (Q1) and collided with argon gas in the collision cell (Q2) to generate specific product ion, which was subsequently monitored by quadrupole 3 (Q3). Standard curve and quality control samples were prepared in male rat plasma and processed in the same way as the test samples to generate quantitative data.
Pharmacokinetic parameters were generated using non-compartmental pharmacokinetic analysis (Phoenix WinNonlin, version 6.3). Values below the lower limit of quantification (LLOQ) were assigned a value of zero if predose and treated as missing thereafter. Area under the curve (AUC) was calculated using the linear trapezoidal rule. The oral bioavailability (% F) was determined by comparison of the area under the curve (AUC) of the compound and/or a metabolite generated in plasma following oral administration to that generated following intravenous administration.

The subject of series [5] is stable HCV 1b RLuc replicon cells (dicistronic genotype 1b Con1 replicon). Kind of series: Renilla luciferase HCV replicon reporter assay, genotype 1b. The series is classed as cell-based. To be noted: Hepatitis C virus, 72 h, stable 1b Con1 RLuc replicon cells, 72 hours; read-out: 1b. The essentials:
as §1

Series [6] has as its system stable HCV 2a JFH-1 Rluc replicon cells (L31 present in NS5A). Kind of series: Renilla luciferase HCV replicon reporter assay, genotype 2a JFH-1. Format: cell-based. To be noted: Hepatitis C virus. The method in brief: as §1
The test system of series [7] is NS5A chimeric genotype 1b Con1 replicon with genotype 4a ED43 strain NS5A gene. Nature of the series: Replicon assay, genotype 4a NS5A chimera. Format: cell-based, HCV. The settings on record: Hepatitis C virus.
Series [8] deals with NS5A chimeric genotype 2a JFH-1 replicon with genotype 2a J6 strain NS5A gene (M31 present). Kind of series: Replicon assay, genotype 2a J6 NS5A chimera. The series is classed as cell-based, HCV. The settings on record: Hepatitis C virus. The method in brief:
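First, 3-fold serial dilutions of compound went onto replicon cells, DMSO serving as no-inhibition control and ITMN-191 at >100×EC50 as positive control. Next came 72 h incubation, lysis and Renilla luciferase measurement. Finally, EC50 was calculated by non-linear regression; replicons covered genotypes 1a H77, 1b Con1, 2a JFH-1 (L31) and J6-NS5A chimera (M31).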

The subject of series [9] is Q30R in genotype 1a NS5A (1a Pi-Rluc replicon, Huh-7-derived cured-51 cells). Nature of the series: Replicon assay against resistance mutant 1a Q30R. Format: cell-based, HCV. To be noted: Hepatitis C virus. The method in brief:
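Q30R introduced by site-directed mutagenesis into the 1a Pi-RLuc replicon; replicon RNA transiently transfected into cured-51 cells. Cells treated with 3-fold serially diluted compound for 72 h, then lysed and Renilla luciferase measured; EC50 by non-linear regression.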

Where [10] appears, read: 2BS, read-out: 2b (s), stably replicating replicon cells (s), activity range.
[11] abbreviates: read-out: 2b (s) (nM), genotype 2b MD2b-1 NS5A chimeric replicon (M31), stably replicating replicon cells (s).
The mark [12] stands for this setting: read-out: 3a (s) (nM), genotype 3a NS5A chimeric replicon, stable replicon cells (s).
Where [13] appears, read: read-out: 3a (s), (s), activity range.
[14] abbreviates: read-out: 2a JFH (nM), genotype 2a JFH-1 replicon (L31 in NS5A), stable cells.
Setting [15] is: read-out: 2a JFH, stable 2a JFH-1 Rluc replicon cells, L31 in NS5A, activity range.
Setting [16] is: read-out: 4a (s) (nM), genotype 4a NS5A chimeric replicon, stable replicon cells (s).
[17] abbreviates: read-out: 4a (s), (s), activity range.

Regarding `CC[C@H]1CC[C@@H](c2nc3ccc4cc5c(cc4c3[nH]2)OCc2cc(-c3cnc([C@@H]4CC[C@H](C)N4C(=O)[C@@H](NC(=O)OC)C(C)C)[nH]3)ccc2-5)N1C(=O)[C@@H](NC(=O)OC)[C@@H](C)OC` [EP, Methyl {(2S,3R)-1-[(2S,5S)-2-ethyl-5-(9-{2-[(2S,5S)-1-{(2S)-[(methoxycarbonyl)amino]-3-methylbutanoyl}-5-methylpyrrolidin-2-yl]-1H-imidazol-5-yl}-1,11-dihydroisochromeno[4′,3′:6,7]naphtho[1,2-d]imidazol-2-yl)pyrrolidin-1-yl]-3-methoxy-1l-oxobutan-2-yl}carbamate], the EC50 in series [1] (setting [10]) is 0.1 to 0.999 nM; in [1] (setting [11]) it was 0.213 nM; in series [2], 14 pM; in series [2] (activity range), less than 100 pM; in series [3] (setting [12]), 0.115 nM; in series [3] (setting [13]), 0.1 to 0.999 nM. Also, the EC50 is 24 pM in series [5], 0.013 nM in series [6] (setting [14]) and less than 0.1 nM in [6] (setting [15]). For the same molecule, the bioavailability in series [4] was determined as 17.5%.

Consider `COC(=O)N[C@H](C(=O)N1[C@@H](C)CC[C@H]1c1ncc(-c2ccc3c(c2)COc2cc4c(ccc5nc([C@@H]6CC[C@H](C)N6C(=O)[C@@H](NC(=O)OC)[C@@H](C)OC(F)F)[nH]c54)cc2-3)[nH]1)C(C)C` [FM, Methyl {(2S)-1-[(2S,5S)-2-(5-{2-[(2S,5S)-1-{(2S,3R)-3-(difluoromethoxy)-2-[(methoxycarbonyl)amino]butanoyl}-5-methylpyrrolidin-2-yl]-1,11-dihydroisochromeno[4′,3′:6,7]naphtho[1,2-d]imidazol-9-yl}-1H-imidazol-2-yl)-5-methylpyrrolidin-1-yl]-3-methyl-1-oxobutan-2-yl}carbamate], for which the EC50 in series [1] (setting [10]) is 0.1 to 0.999 nM; in series [1] (setting [11]), 0.259 nM; in [7] (setting [16]), 0.007 nM; in series [7] (setting [17]), less than 0.1 nM; in series [2], 9 pM; in [2] (activity range), less than 100 pM. Besides, the EC50 in series [3] (setting [12]) is 0.061 nM; in series [3] (setting [13]), less than 0.1 nM; in series [5] it was 18 pM; in series [6] (setting [14]), 0.019 nM; in series [6] (setting [15]), less than 0.1 nM. Further, in [4], the bioavailability turned out to be 22.7%.

For `CC[C@H](C)[C@H](NC(=O)OC)C(=O)N1[C@@H](C)CC[C@H]1c1ncc(-c2ccc3c(c2)COc2cc4c(ccc5nc([C@@H]6CC[C@H](C)N6C(=O)[C@@H](NC(=O)OC)[C@@H](C)OC)[nH]c54)cc2-3)[nH]1` [GF, Methyl {(2S,3S)-1-[(2S,5S)-2-(5-{2-[(2S,5S)-1-{(2S,3R)-3-methoxy-2-[(methoxycarbonyl)amino]butanoyl}-5-methylpyrrolidin-2-yl]-1,11-dihydroisochromeno[4′,3′:6,7]naphtho[1,2-d]imidazol-9-yl}-1H-imidazol-2-yl)-5-methylpyrrolidin-1-yl]-3-methyl-1-oxopentan-2-yl}carbamate], the EC50 in [1] (setting [10]) was 0.1 to 0.999 nM; in series [1] (setting [11]), 0.203 nM; in series [7] (setting [16]) it was 0.011 nM; in series [7] (setting [17]), less than 0.1 nM; in [2], 7 pM; in series [2] (activity range), less than 100 pM. Besides, the EC50 was 0.027 nM in series [3] (setting [12]); less than 0.1 nM in series [3] (setting [13]); 15 pM in series [5]; 0.018 nM in series [6] (setting [14]); less than 0.1 nM in series [6] (setting [15]). Besides, the bioavailability in [4] stood at 15.6%.

For `CC[C@H]1CC[C@@H](c2ncc(-c3ccc4c(c3)COc3cc5c(ccc6nc([C@@H]7CC[C@H](C)N7C(=O)[C@@H](NC(=O)OC)[C@@H](C)OC)[nH]c65)cc3-4)[nH]2)N1C(=O)[C@@H](NC(=O)OC)C1CCOCC1` [HY], the EC50 in series [1] (setting [10]) is less than 0.1 nM; in series [1] (setting [11]), 0.049 nM; in series [1] (read-out: 2b (t) (nM), genotype 2b MD2b-1 NS5A chimeric replicon (M31), transiently transfected (t)), 0.031 nM; in [1] (read-out: 2b (t), transiently transfected (t) into Huh-Lunet cells, activity range) it was less than 0.1 nM; in [8] (read-out: 2a J6 (t) (nM), genotype 2a J6 NS5A chimeric replicon (M31), transiently transfected (t) into Huh-Lunet cells), 0.026 nM; in series [8] (read-out: 2a J6 (t), transiently transfected (t) into Huh-Lunet cells, activity range) it was less than 0.1 nM. The EC50 in [9] (read-out: 1a Q30R) is less than 0.1 nM; in series [9] (read-out: 1a Q30R (nM)) it was 0.046 nM; in series [7] (setting [16]), 0.017 nM; in [7] (setting [17]) it was less than 0.1 nM; in series [2], 15 pM; in series [2] (activity range), less than 100 pM. In addition, the EC50 in series [3] (setting [12]) is 0.052 nM; in series [3] (setting [13]), less than 0.1 nM; in series [3] (read-out: 3a (t) (nM), genotype 3a NS5A chimeric replicon, transiently transfected (t)), 0.055 nM; in [3] (read-out: 3a (t), transiently transfected (t) into Huh-Lunet cells, activity range) it was less than 0.1 nM; in series [5], 28 pM; in [6] (setting [14]), 0.015 nM. The EC50 in series [6] (setting [15]) was less than 0.1 nM.

In the case of `CC[C@H]1CC[C@@H](c2nc3ccc4cc5c(cc4c3[nH]2)OCc2cc(-c3cnc([C@@H]4CC[C@H](C)N4C(=O)[C@@H](NC(=O)OC)[C@@H](C)CC)[nH]3)ccc2-5)N1C(=O)[C@@H](NC(=O)OC)C1CCOCC1` [IK], the EC50 in [1] (setting [10]) was 0.1 to 0.999 nM; in series [1] (setting [11]), 0.181 nM; in series [7] (setting [16]) it was 0.042 nM; in series [7] (setting [17]), less than 0.1 nM; in series [2], 39 pM; in series [2] (activity range) it was less than 100 pM. Moreover, the EC50 in series [3] (setting [12]) is 0.155 nM; in series [3] (setting [13]), 0.1 to 0.999 nM; in [5] it was 38 pM; in [6] (setting [14]), 0.015 nM; in [6] (setting [15]), less than 0.1 nM. In series [4], the bioavailability worked out at 27.4%.

The values are drawn from patent publication US10800789B2, “Antiviral compounds” (Gilead Pharmasset LLC, priority 2012, dated 2020).
